Measurements taken from patent US20230295162A1 (EÖTVÖS LORÁND TUDOMÁNYEGYETEM, priority 2020, published 2023).
Read-outs that look alike come from different tables or passages of the source.

Tests used:
[1] = test system: SCC-25 (tongue, squamous cell carcinoma) cells; assay: Cell viability assay, CellTiter-Glo (Example 21); format: cell-based, human; conditions: 72 h treatment
Summary of the method: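 SCC-25 tongue squamous cell carcinoma cells were seeded at 1000 cells/well in flat-bottomed white 96 well plates, treated with compound, and viability was then determined with the CellTiter-Glo luminescent assay (Promega) following the manufacturer's instructions. Luminescence was read on a BioTek Synergy 2 Multi-Mode Reader.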

[2] = test system: MDA-MB-231 (breast, adenocarcinoma) cells; assay: Cell viability assay, CellTiter-Glo (Example 21); format: cell-based, human; conditions: 72 h treatment
Summary of the method: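 MDA-MB-231 breast adenocarcinoma cells were seeded at 1500 cells/well in flat-bottomed white 96 well plates (BRANDplates®, cat. no.: 781965). Following compound exposure, viability was assessed with the CellTiter-Glo® luminescent assay (Promega) following the manufacturer's protocol, and luminescence was read on a BioTek Synergy 2 Multi-Mode Reader.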

[3] = test system: MIA PaCa-2 (pancreas, carcinoma) cells; assay: Cell viability assay, CellTiter-Glo (Example 21); format: cell-based, human; conditions: 72 h treatment
Summary of the method: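 MIA PaCa-2 pancreatic carcinoma cells were seeded at 1000 cells/well in flat-bottomed white 96 well plates (BRANDplates®, cat. no.: 781965) and treated with compound. Viability was then determined with the CellTiter-Glo® luminescent cell viability assay (Promega) following the manufacturer's instructions, with luminescence read on a BioTek Synergy 2 Multi-Mode Reader.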

[4] = test system: Panc-1 (pancreas, carcinoma) cells; assay: Cell viability assay, CellTiter-Glo (Example 21); format: cell-based, human; conditions: 72 h treatment
Summary of the method: (§1)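 Seeding density per line: Panc-1 750, FaDu 1000, Detroit 562 and MDA-MB-453 1500 cells/well. Viability after treatment read by CellTiter-Glo luminescence; dose-response curves fitted by four-parameter variable-slope non-linear regression.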

[5] = test system: EBC-1 (lung, squamous cell carcinoma) cells; assay: Cell viability assay, CellTiter-Glo (Example 21); format: cell-based, human; conditions: 72 h treatment
Summary of the method: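 EBC-1 lung squamous cell carcinoma cells were seeded at 1000 cells/well in flat-bottomed white 96 well plates. After compound treatment, viability was measured with the CellTiter-Glo luminescent assay following the manufacturer's instructions, and luminescence was read on a BioTek Synergy 2 Multi-Mode microplate reader.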

[6] = test system: LNCaP (prostate, carcinoma) cells; assay: Cell viability assay, CellTiter-Glo (Example 21); format: cell-based, human; conditions: 72 h
Summary of the method: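 LNCaP prostate carcinoma cell viability was assessed with the CellTiter-Glo® luminescent assay (Promega), following the manufacturer's instructions. Cells were seeded at 1500 cells/well into flat-bottomed white 96 well plates, treated, and then luminescence was read on a BioTek Synergy 2 Multi-Mode Reader. Dose-response curves were fitted in GraphPad Prism 8.4.2 by four-parameter variable-slope non-linear regression.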

[7] = test system: DU 145 (prostate, carcinoma) cells; assay: Cell viability assay, CellTiter-Glo (Example 21); format: cell-based, human; conditions: 72 h
Summary of the method: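 DU 145 cancer cell viability was assessed with the CellTiter-Glo® luminescent assay (Promega, Madison, WI, USA), following the manufacturer's instructions. Cells were seeded at 1000 cells/well in flat-bottomed white 96 well plates, and after treatment luminescence was read on a BioTek Synergy 2 Multi-Mode Reader.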

[8] = test system: Capan-1 (pancreas, adenocarcinoma) cells; assay: Cell viability assay, CellTiter-Glo (Example 21); format: cell-based, human; conditions: 72 h treatment
Summary of the method: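 Capan-1 cells were seeded at 1000 cells/well in flat-bottomed white 96 well plates (BRANDplates®), with density optimized for cell size and growth rate. Following compound treatment, viability was measured with the CellTiter-Glo® luminescent assay (Promega) per the manufacturer's instructions, reading luminescence on a BioTek Synergy 2 Multi-Mode Reader.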

[9] = test system: MDA-MB-453 (breast, carcinoma) cells; assay: Cell viability assay, CellTiter-Glo (Example 21); format: cell-based, human; conditions: 72 h treatment
Summary of the method: as §1

[10] = test system: Detroit 562 (pharynx, carcinoma) cells; assay: Cell viability assay, CellTiter-Glo (Example 21); format: cell-based, human; conditions: 72 h treatment
Summary of the method: as §1

[11] = test system: PC-3 (prostate, adenocarcinoma) cells; assay: Cell viability assay, CellTiter-Glo (Example 21); format: cell-based, human; conditions: 72 h treatment
Summary of the method: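 PC-3 prostate adenocarcinoma cells were seeded at 1000 cells/well in flat-bottomed white 96 well plates and treated with compounds. Viability was then determined with the CellTiter-Glo® luminescent assay (Promega) following the manufacturer's instructions, with luminescence read on a BioTek Synergy 2 Multi-Mode Reader.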

EBC-1 cell line = assay: Additional in vitro IC50 tests (Table 3); format: cell-based; conditions: Homo sapiens
Summary of the method: (§2)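 Cells at 1000/well, viability by CellTiter-Glo luminescence after compound treatment, as % of untreated control. IC50 from variable-slope log(inhibitor) vs response nonlinear regression.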

SCC-25 cell line = assay: Additional in vitro IC50 tests (Table 3); format: cell-based; conditions: Homo sapiens
Summary of the method: as §2

Fadu cell line = assay: Additional in vitro IC50 tests (Table 3); format: cell-based; conditions: Homo sapiens
Summary of the method: as §2

Detroit 562 cell line = assay: Additional in vitro IC50 tests (Table 3); format: cell-based; conditions: Homo sapiens
Summary of the method: as §2

H2228 cell line = assay: Additional in vitro IC50 tests (Table 3); format: cell-based; conditions: Homo sapiens, NCI-H2228
Summary of the method: as §2

Panc-1 human cell line = assay: Cytotoxicity on Panc-1, xCELLigence SP, IC50 after 24 h, 48 h, 72 h and 96 h (Example 22)
[12] = test system: Panc1 pancreatic cancer cell line; assay: CellTiter-Glo IC50 (Example 19); format: cell-based; conditions: Homo sapiens, PANC-1, 72 h
Summary of the method: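 Cells were seeded at 1000 cells/well and kept at 37° C in 5% CO2. After compound treatment, medium was removed, CellTiter-Glo reagent added and luminescence read. Viability was expressed as % of untreated control, and IC50 came from variable-slope log(inhibitor) vs response non-linear regression.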

[13] = test system: PANC-1 (human pancreatic carcinoma) cells; assay: Impedance-based viability assay (xCELLigence SP), long treatment; format: cell-based; conditions: 72 h, read-out: cytotoxicity expressed in IC50, PANC-1
Text: (Gibco®/Invitrogen Corporation, New York, NY, USA).
Data obtained from each experiment represent mathematical averages.

With `O=C1C2=C(CCN(Cc3cc(F)cc(F)c3)C2)N2CCN=C2N1Cc1ccc(C(F)(F)F)cc1` [I/30, 7-(3,5-Difluorobenzyl)-4-(4-(trifluoromethyl)benzyl)-2,4,6,7,8,9-hexahydroimidazo[1,2-a]pyrido[3,4-e]pyrimidin-5(1H)-one] the “SCC-25 (tongue, squamous cell carcinoma) cell viability (% of control)” value ([1]; 3.7 nM) was 78.7 ± 15.0 % of control, the “SCC-25 (tongue, squamous cell carcinoma) cell viability (% of control)” value ([1]; 11.1 nM) was 35.0 ± 14.5 % of control and the “SCC-25 (tongue, squamous cell carcinoma) cell viability (% of control)” value ([1]; 100 nM) was 32.9 ± 2.1 % of control. For the same compound, the “SCC-25 (tongue, squamous cell carcinoma) cell viability (% of control)” value ([1]; 300 nM) was 36.3 ± 2.6 % of control, the “MDA-MB-231 (breast, adenocarcinoma) cell viability (% of control)” value ([2]; 3.7 nM) was 100.0 ± 4.5 % of control and the “MDA-MB-231 (breast, adenocarcinoma) cell viability (% of control)” value ([2]; 11.1 nM) was 59.9 ± 2.1 % of control. For the same compound, the “MDA-MB-231 (breast, adenocarcinoma) cell viability (% of control)” value ([2]; 100 nM) was 52.1 ± 1.8 % of control, the “MDA-MB-231 (breast, adenocarcinoma) cell viability (% of control)” value ([2]; 300 nM) was 52.6 ± 2.5 % of control and the “MIA PaCa-2 (pancreas, carcinoma) cell viability (% of control)” value ([3]; 3.7 nM) was 65.7 ± 12.6 % of control. For the same compound, the “MIA PaCa-2 (pancreas, carcinoma) cell viability (% of control)” value ([3]; 11.1 nM) was 19.1 ± 8.0 % of control, the “MIA PaCa-2 (pancreas, carcinoma) cell viability (% of control)” value ([3]; 100 nM) was 16.7 ± 6.7 % of control and the “MIA PaCa-2 (pancreas, carcinoma) cell viability (% of control)” value ([3]; 300 nM) was 17.6 ± 7.6 % of control. For the same compound, the “Panc-1 (pancreas, carcinoma) cell viability (% of control)” value ([4]; 3.7 nM) was 100.8 ± 3.4 % of control, the “Panc-1 (pancreas, carcinoma) cell viability (% of control)” value ([4]; 11.1 nM) was 54.4 ± 3.5 % of control and the “Panc-1 (pancreas, carcinoma) cell viability (% of control)” value ([4]; 100 nM) was 46.4 ± 3.1 % of control. For the same compound, the “Panc-1 (pancreas, carcinoma) cell viability (% of control)” value ([4]; 300 nM) was 49.1 ± 0.2 % of control, the “EBC-1 (lung, squamous cell carcinoma) cell viability (% of control)” value ([5]; 3.7 nM) was 76.4 ± 2.2 % of control and the “EBC-1 (lung, squamous cell carcinoma) cell viability (% of control)” value ([5]; 11.1 nM) was 24.8 ± 1.1 % of control. For the same compound, the “EBC-1 (lung, squamous cell carcinoma) cell viability (% of control)” value ([5]; 100 nM) was 21.3 ± 0.6 % of control, the “EBC-1 (lung, squamous cell carcinoma) cell viability (% of control)” value ([5]; 300 nM) was 20.1 ± 0.0 % of control and the LNCaP cell viability ([6]; 3.7 nM) was 29.6 ± 2.5 % of control. The LNCaP cell viability ([6]; 11.1 nM) was 15.0 ± 0.4 % of control, the LNCaP cell viability ([6]; 100 nM) was 11.4 ± 0.6 % of control and the LNCaP cell viability ([6]; 300 nM) was 11.3 ± 1.1 % of control. For the same compound, the “DU 145 cell viability” value ([7]; 3.7 nM) was 37.2 ± 10.4 % of control, the “DU 145 cell viability” value ([7]; 11.1 nM) was 7.0 ± 0.9 % of control and the “DU 145 cell viability” value ([7]; 100 nM) was 7.0 ± 1.1 % of control. For the same compound, the “DU 145 cell viability” value ([7]; 300 nM) was 8.0 ± 2.9 % of control, the “Capan-1 (pancreas, adenocarcinoma) cell viability (% of control)” value ([8]; 3.7 nM) was 100.8 ± 5.3 % of control and the “Capan-1 (pancreas, adenocarcinoma) cell viability (% of control)” value ([8]; 11.1 nM) was 38.4 ± 4.5 % of control. The “Capan-1 (pancreas, adenocarcinoma) cell viability (% of control)” value ([8]; 100 nM) was 34.0 ± 2.8 % of control, the “Capan-1 (pancreas, adenocarcinoma) cell viability (% of control)” value ([8]; 300 nM) was 33.1 ± 1.7 % of control and the “MDA-MB-453 (breast, carcinoma) cell viability (% of control)” value ([9]; 3.7 nM) was 58.0 ± 24.4 % of control. The “MDA-MB-453 (breast, carcinoma) cell viability (% of control)” value ([9]; 11.1 nM) was 34.8 ± 3.3 % of control, the “MDA-MB-453 (breast, carcinoma) cell viability (% of control)” value ([9]; 100 nM) was 31.1 ± 1.8 % of control and the “MDA-MB-453 (breast, carcinoma) cell viability (% of control)” value ([9]; 300 nM) was 28.9 ± 1.0 % of control. For the same compound, the “Detroit 562 (pharynx, carcinoma) cell viability (% of control)” value ([10]; 3.7 nM) was 31.9 ± 6.7 % of control, the “Detroit 562 (pharynx, carcinoma) cell viability (% of control)” value ([10]; 11.1 nM) was 27.0 ± 5.5 % of control and the “Detroit 562 (pharynx, carcinoma) cell viability (% of control)” value ([10]; 100 nM) was 24.7 ± 2.9 % of control. For the same compound, the “Detroit 562 (pharynx, carcinoma) cell viability (% of control)” value ([10]; 300 nM) was 28.7 ± 2.5 % of control, the “PC-3 (prostate, adenocarcinoma) cell viability (% of control)” value ([11]; 3.7 nM) was 78.9 ± 4.6 % of control and the “PC-3 (prostate, adenocarcinoma) cell viability (% of control)” value ([11]; 11.1 nM) was 36.6 ± 1.8 % of control. For the same compound, the “PC-3 (prostate, adenocarcinoma) cell viability (% of control)” value ([11]; 100 nM) was 32.1 ± 3.6 % of control, the “PC-3 (prostate, adenocarcinoma) cell viability (% of control)” value ([11]; 300 nM) was 31.3 ± 2.5 % of control and the IC50 (EBC-1 cell line) was 5 nM. The IC50 (SCC-25 cell line) was 6 nM, the IC50 (Fadu cell line) was 5 nM and the IC50 (Detroit 562 cell line) was 2 nM. The IC50 (H2228 cell line) was 5 nM, the IC50 (Panc-1 human cell line; PANC-1, 72 h, read-out: IC50 (72 h) [nM]) was 2.08 ± 0.267 nM and the IC50 (Panc-1 human cell line; PANC-1, 96 h, read-out: IC50 (96 h) [nM]) was 0.517 ± 0.0232 nM. It also gave an IC50 [12] of 3 nM and an IC50 [13] of 4 nM.
